Results published in patent US6737383B1, “Herbicidal oxadiazolidines” (priority 1999, dated 2004).

Experiments:
surinam grass = assay: Test B pre/postemergence surinam grass; format: in vivo, Brachiaria decumbens
How it was run: (§1)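 Herbicidal effect was estimated by eye on a ten-point control scale after plants spent twelve to sixteen days in a greenhouse following soil or foliar treatment. Foliar sprays targeted plants at one to four leaves; all doses were formulated in a non-phytotoxic solvent with surfactant.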

purple nutsedge = assay: Test B pre/postemergence purple nutsedge; format: in vivo, Cyperus rotundus
How it was run: as §1

crabgrass = assay: Test B pre/postemergence crabgrass; format: in vivo, Digitaria sanguinalis
How it was run: as §1

velvetleaf = assay: Test B pre/postemergence velvetleaf; format: in vivo, Abutilon theophrasti
How it was run: as §1

wheat = assay: Test B pre/postemergence wheat; format: in vivo, Triticum aestivum
How it was run: as §1

pigweed = assay: Test B pre/postemergence pigweed; format: in vivo, Amaranthus retroflexus
How it was run: as §1

sugar beet = assay: Test B pre/postemergence sugar beet; format: in vivo, Beta vulgaris
How it was run: as §1

bedstraw = assay: Test B pre/postemergence bedstraw; format: in vivo, Galium aparine
How it was run: as §1

rice = assay: Test B flood test rice; format: in vivo, Oryza sativa
How it was run: (§2)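 Read-out is a visual response score from 0 (no effect) to 10 (complete control), assigned by comparison with untreated controls. Treatment was applied at the 2-leaf stage, and plants stayed in the greenhouse for twelve to sixteen days before scoring.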

bamyardgrass = assay: Test B flood test barnyardgrass; format: in vivo, Echinochloa crus-galli
How it was run: as §2

duck salad = assay: Test B flood test duck salad; format: in vivo, Heteranthera limosa
How it was run: as §2

giant foxtail = assay: Test B pre/postemergence giant foxtail; format: in vivo, Setaria faberii
How it was run: as §1

blackgrass = assay: Test B pre/postemergence blackgrass; format: in vivo, Alopecurus myosuroides
How it was run: as §1

cocklebur = assay: Test B pre/postemergence cocklebur; format: in vivo, Xanthium strumarium
How it was run: as §1

wild oat = assay: Test B pre/postemergence wild oat; format: in vivo, Avena fatua
How it was run: as §1

morningglory = assay: Test B pre/postemergence morningglory; format: in vivo, Ipomoea hederacea
How it was run: as §1

[1] = Preemergence, Rate 62 g/ha, scale of 0 to 10 where 0 is no effect and 10 is complete control
[2] = Preemergence, Rate 500 g/ha, scale of 0 to 10 where 0 is no effect and 10 is complete control
[3] = Rate 62 g/ha, Postemergence, scale of 0 to 10 where 0 is no effect and 10 is complete control
[4] = Rate 125 g/ha, Preemergence, scale of 0 to 10 where 0 is no effect and 10 is complete control
[5] = Rate 500 g/ha, Postemergence, scale 0 to 10, 0 no effect, 10 complete control
[6] = Preemergence, Rate 250 g/ha, scale of 0 to 10 where 0 is no effect and 10 is complete control
[7] = Rate 125 g/ha, Postemergence, scale 0 to 10
[8] = Rate 62 g/ha, headed Pre-emergence (flood test species), scale 0 to 10 (0 no effect, 10 complete control)
[9] = Rate 125 g/ha, Pre-emergence, flood test species, scale 0 to 10 where 0 is no effect and 10 is complete control
[10] = Rate 250 g/ha, Pre-emergence, flood-test species, scale 0 to 10, 0 is no effect, 10 is complete control
[11] = Rate 500 g/ha, Pre-emergence, flood test species, scale 0 to 10 (0 no effect, 10 complete control)

**Q.** What does the source list for COc1cc(C)cc(C)c1-n1c(=O)on(C(=O)N(c2ccc(F)cc2)C(C)C)c1=O [Compound 222]?
**A.** B. signalgrass plant response rating (surinam grass; [1]): 0; B. signalgrass plant response rating (surinam grass; Preemergence, Rate 250 g/ha, scale 0 to 10, 0 is no effect, 10 is complete control): 0; Plant response rating, B. signalgrass (surinam grass; [2]): 0; B. signalgrass plant response rating (surinam grass; [3]): 0; B. signalgrass plant response rating (surinam grass; Rate 125 g/ha, Postemergence, scale 0 (no effect) to 10 (complete control)): 0; B. signalgrass plant response rating (surinam grass; [4]): 0; Plant response rating (0 to 10; 0 is no effect, 10 is complete control), B. signalgrass (surinam grass; Rate 250 g/ha, Postemergence): 0; B. signalgrass plant response rating (surinam grass; [5]): 1; Nutsedge plant response rating (purple nutsedge; [6]): 0; Nutsedge plant response rating (purple nutsedge; [3]): 0; Nutsedge plant response rating (purple nutsedge; [7]): 0; Nutsedge plant response rating (purple nutsedge; [4]): 0; Plant response rating (0 to 10; 0 is no effect, 10 is complete control), Nutsedge (purple nutsedge; Rate 250 g/ha, Postemergence): 0; Crabgrass plant response rating (crabgrass; [1]): 0; Crabgrass plant response rating (crabgrass; [6]): 8; Plant response rating, Crabgrass (crabgrass; [2]): 9; Crabgrass plant response rating (crabgrass; [3]): 0; Crabgrass plant response rating (crabgrass; [7]): 0; Crabgrass plant response rating (crabgrass; [4]): 6; Plant response rating (0 to 10; 0 is no effect, 10 is complete control), Crabgrass (crabgrass; Rate 250 g/ha, Postemergence): 0; Crabgrass plant response rating (crabgrass; [5]): 2; Velvetleaf plant response rating (velvetleaf; [1]): 0; Velvetleaf plant response rating (velvetleaf; [6]): 0; Plant response rating, Velvetleaf (velvetleaf; [2]): 3; Velvetleaf plant response rating (velvetleaf; [3]): 0; Velvetleaf plant response rating (velvetleaf; [7]): 0; Velvetleaf plant response rating (velvetleaf; [4]): 0; Plant response rating (0 to 10; 0 is no effect, 10 is complete control), Velvetleaf (velvetleaf; Rate 250 g/ha, Postemergence): 2; Velvetleaf plant response rating (velvetleaf; [5]): 3; Wheat plant response rating (wheat; [1]): 0; Wheat plant response rating (wheat; [6]): 0; Plant response rating, Wheat (wheat; [2]): 0; Wheat plant response rating (wheat; [3]): 0; Wheat plant response rating (wheat; [7]): 0; Wheat plant response rating (wheat; [4]): 0; Plant response rating (0 to 10; 0 is no effect, 10 is complete control), Wheat (wheat; Rate 250 g/ha, Postemergence): 0; Wheat plant response rating (wheat; [5]): 0; Redroot pigweed plant response rating (pigweed; [1]): 0; Redroot pigweed plant response rating (pigweed; [6]): 0; Plant response rating, Redroot pigweed (pigweed; [2]): 4; Redroot pigweed plant response rating (pigweed; [3]): 0; Redroot pigweed plant response rating (pigweed; [7]): 0; Redroot pigweed plant response rating (pigweed; [4]): 0; Plant response rating (0 to 10; 0 is no effect, 10 is complete control), Redroot pigweed (pigweed; Rate 250 g/ha, Postemergence): 0; Redroot pigweed plant response rating (pigweed; [5]): 0; Sugarbeets plant response rating (sugar beet; [1]): 0; Sugarbeets plant response rating (sugar beet; [6]): 0; Plant response rating, Sugarbeets (sugar beet; [2]): 0; Sugarbeets plant response rating (sugar beet; [3]): 0; Sugarbeets plant response rating (sugar beet; [7]): 0; Sugarbeets plant response rating (sugar beet; [4]): 0; Plant response rating (0 to 10; 0 is no effect, 10 is complete control), Sugarbeets (sugar beet; Rate 250 g/ha, Postemergence): 0; Sugarbeets plant response rating (sugar beet; [5]): 0; Bedstraw plant response rating (bedstraw; [1]): 0; Bedstraw plant response rating (bedstraw; [6]): 0; Plant response rating, Bedstraw (bedstraw; [2]): 0; Bedstraw plant response rating (bedstraw; [3]): 3; Bedstraw plant response rating (bedstraw; [7]): 3; Bedstraw plant response rating (bedstraw; [4]): 0; Plant response rating (0 to 10; 0 is no effect, 10 is complete control), Bedstraw (bedstraw; Rate 250 g/ha, Postemergence): 4; Bedstraw plant response rating (bedstraw; [5]): 5; Rice plant response rating (rice; [8]): 0; Rice plant response rating (rice; [9]): 0; Rice plant response rating (rice; [10]): 0; Rice plant response rating (rice; [11]): 0; Barnyardgrass plant response rating (bamyardgrass; [8]): 0; Barnyardgrass plant response rating (bamyardgrass; [9]): 0; Barnyardgrass plant response rating (bamyardgrass; [10]): 0; Barnyardgrass plant response rating (bamyardgrass; [11]): 0; Ducksalad plant response rating (duck salad; [8]): 0; Ducksalad plant response rating (duck salad; [9]): 0; Ducksalad plant response rating (duck salad; [10]): 0; Ducksalad plant response rating (duck salad; [11]): 0; Giant foxtail plant response rating (giant foxtail; [1]): 0; Giant foxtail plant response rating (giant foxtail; [6]): 7; Plant response rating, Giant foxtail (giant foxtail; [2]): 9; Giant foxtail plant response rating (giant foxtail; [3]): 0; Giant foxtail plant response rating (giant foxtail; [7]): 0; Giant foxtail plant response rating (giant foxtail; [4]): 5; Plant response rating (0 to 10; 0 is no effect, 10 is complete control), Giant foxtail (giant foxtail; Rate 250 g/ha, Postemergence): 0; Giant foxtail plant response rating (giant foxtail; [5]): 1; Blackgrass plant response rating (blackgrass; [1]): 0; Blackgrass plant response rating (blackgrass; [6]): 0; Plant response rating, Blackgrass (blackgrass; [2]): 0; Blackgrass plant response rating (blackgrass; [3]): 0; Blackgrass plant response rating (blackgrass; [7]): 0; Blackgrass plant response rating (blackgrass; [4]): 0; Plant response rating (0 to 10; 0 is no effect, 10 is complete control), Blackgrass (blackgrass; Rate 250 g/ha, Postemergence): 3; Blackgrass plant response rating (blackgrass; [5]): 4; Cocklebur plant response rating (cocklebur; [1]): 0; Cocklebur plant response rating (cocklebur; [6]): 0; Cocklebur plant response rating (cocklebur; [3]): 0; Cocklebur plant response rating (cocklebur; [7]): 0; Cocklebur plant response rating (cocklebur; [4]): 0; Plant response rating (0 to 10; 0 is no effect, 10 is complete control), Cocklebur (cocklebur; Rate 250 g/ha, Postemergence): 0; Cocklebur plant response rating (cocklebur; [5]): 0; Wild oats plant response rating (wild oat; [1]): 0; Wild oats plant response rating (wild oat; [6]): 0; Plant response rating, Wild oats (wild oat; [2]): 1; Wild oats plant response rating (wild oat; [3]): 0; Wild oats plant response rating (wild oat; [7]): 0; Wild oats plant response rating (wild oat; [4]): 0; Plant response rating (0 to 10; 0 is no effect, 10 is complete control), Wild oats (wild oat; Rate 250 g/ha, Postemergence): 0; Wild oats plant response rating (wild oat; [5]): 0; Morningglory plant response rating (morningglory; [1]): 0; Morningglory plant response rating (morningglory; [6]): 0; Plant response rating, Morningglory (morningglory; [2]): 0; Morningglory plant response rating (morningglory; [3]): 1; Morningglory plant response rating (morningglory; [7]): 1; Morningglory plant response rating (morningglory; [4]): 0; Plant response rating (0 to 10; 0 is no effect, 10 is complete control), Morningglory (morningglory; Rate 250 g/ha, Postemergence): 3; Morningglory plant response rating (morningglory; [5]): 3
